Patent publication US20230094952A1, “Method for Culturing Hematopoietic Stem Cells” (Sumitomo Pharma Co., Ltd., priority 2019, published 2023)

Tests used:
[1] = system: human hematopoietic stem cells (CD34-positive cells); experiment: Confirmation test with human cells: 1-week culture of cord blood Lineage-negative CD34-positive cells, flow cytometry; format: cell-based; conditions: 180 cells before culture, no UM171
Description: Collection of Human Cord Blood-Derived Mononuclear Cells Human cord blood-derived mononuclear cells were subjected to removal of erythrocytes and concentration treatment by using EasySep RBC Depletion Reagent (manufactured by […] Technologies Inc.) to obtain a cell population including hematopoietic stem cells.
First, a CD34-positive cell fraction was partially purified from the thus-obtained cell population including hematopoietic stem cells by using an EASYSep Human Cord Blood CD34 Positive Selection Kit II (manufactured by […] Technologies Inc.). The concentrated CD34-positive cells in a cell population enriched with hematopoietic stem cells and progenitor cells were stained with antibodies for the following cell surface markers.
Staining with the antibodies was performed at 4° C., and the cells were incubated for 30 minutes. For staining with the CD34 antibody, the cells were incubated for 90 minutes. Dead cell staining was performed with SYTOX Blue Dead Cell Stain (manufactured by Life Technologies) in accordance with a method recommended by the manufacturer.
Flow cytometry analysis and cell classification (cell sorting) were performed with a FACS Aria III cell sorter (manufactured by BD Biosciences), wherein fractions being Lineage-negative and CD34-positive were regarded as hematopoietic stem cells, and analysis was performed with the software FlowJo (manufactured by Tree Star, Inc.).
The cells after classification were seeded in a 96-well plate. […]
Each of artemether and the compounds of Example 1-23, Example 1-16, and Example 1-7 was prepared with the cell culture medium at nine final concentrations (0.001 μM, 0.003 μM, 0.01 μM, 0.03 μM, 0.1 μM, 0.3 μM, 1 μM, 3 μM, 10 μM), and added to the above human cells seeded after classification to a final volume of 200 μL/well to act thereon. UM171 (35 nM) was added to some of them to examine the presence or absence of synergistic effect. Thereafter, the cells were cultured in a CO2 incubator under conditions of 37° C. and 5% CO2 for 1 week. Viable cell counts and CD34-positive cell counts were analyzed.
After culture, the cells were stained with the antibodies for the surface markers CD34, CD11b, CD14, CD19, CD20, CD235ab, CD3, CD4, CD56, and CD8a, and the visible cell count and the ratio and post-growth cell count of a CD34 fraction (CD34^+, Lin^−) were measured by using a FACS Aria III cell sorter, and analyzed by using FlowJo (BD Biosciences). The CD34 fraction is a fraction including hematopoietic stem cells and multipotent progenitor cells as main components.

[2] = system: human hematopoietic stem cells (CD34-positive cells); experiment: Functional test with human cells: colony assay (CFU-GEMM) after culture; format: cell-based; conditions: 1 week culture then 2 weeks MethoCult H4435, no UM171
Protocol: Each of artemether and the compounds of Example 1-23, Example 1-16, and Example 1-7 was prepared with the cell culture medium at nine final concentrations (0.001 μM, 0.003 μM, 0.01 μM, 0.03 μM, 0.1 μM, 0.3 μM, 1 μM, 3 μM, 10 μM), and added to the above human cells seeded after classification to a final volume of 200 μL/well to act thereon. UM171 (35 nM) was added to some of them to examine the presence or absence of synergistic effect. Thereafter, the cells were cultured in a CO2 incubator under conditions of 37° C. and 5% CO2 for 1 week, collected, and then seeded in a 96-well plate to place one CD34-positive cell in each well by using a FACS Aria III cell sorter, and cultured with a MethoCult H4435 ([…] Technologies Inc.) for 2 weeks. After culture, each well was photographed with an optical microscope (manufactured by KEYENCE CORPORATION), and the colony count was determined by visual observation and the form of each colony was determined by visual observation. Colony Formation Unit-Granulocytes, Erythroids, Macrophages, Megakaryocytes (CFU-GEMM), which are derived from myeloid progenitor cells, the erythroid burst colony-forming cells Burst Forming Unit-Erythroids (BFU-E), the granulocyte/macrophage colony-forming cells Colony Formation Unit-Granulocytes, Macrophages (CFU-GM) were determined on the basis of the forms of colonies, and the numbers were counted.

[3] = system: human CD34-positive cells transplanted into NOG mouse; experiment: In vivo engraftment test with human cells in irradiated NOG mouse (peripheral blood donor chimerism); conditions: cells cultured with compound 0.01 μM, 10000 cells transplanted
Protocol: (§1) Each of artemether and the compound of Example 1-23 was prepared with the cell culture medium at a final concentration of 0.003 μM or 0.01 μM, and added to the above human cells seeded after classification (166 cells were seeded per well) to a final volume of 200 μL/well to act thereon. Thereafter, for each condition, 10000 cells in total of a CD34-positive fraction were cultured in a CO2 incubator under conditions of 37° C. and 5% CO2 for 1 week, and the cell count was determined. Among the cells after culture, 10000 cells, a number equal to the number of cells before culture, were transplanted into an immunocompromised NOG mouse exposed to a lethal dose of radiation. As a comparative sample, 10000 fresh cord blood-derived CD34-positive cells (uncultured) were transplanted. For peripheral blood donor chimerism at each specified time after transplantation, the human CD45-positive cell count and the mouse CD45-positive cell count were determined by using a human-specific CD45 antibody and a mouse-specific CD45 antibody, and the peripheral blood donor chimerism was represented as the proportion of human CD45-positive cells to the total of human CD45-positive cells and mouse CD45-positive cells (chimerism rate).

[4] = system: human CD34-positive fraction; experiment: Ex vivo culture of 10000 human CD34-positive cells before transplantation (cell count); format: cell-based; conditions: compound 0.01 μM; 10000 CD34-positive cells cultured 1 week
Protocol: as §1

| SMILES | CD34-positive cell count ([1]; compound 0.001 μM) | Viable cell count ([1]; compound 0.001 μM) | CD34-positive cell count ([1]; compound 0.003 μM) | Viable cell count ([1]; compound 0.003 μM) | CD34-positive cell count ([1]; compound 0.01 μM) | Viable cell count ([1]; compound 0.01 μM) | CD34-positive cell count ([1]; compound 0.03 μM) | Viable cell count ([1]; compound 0.03 μM) | CD34-positive cell count ([1]; compound 0.1 μM) | Viable cell count ([1]; compound 0.1 μM) | CD34-positive cell count ([1]; compound 0.3 μM) | Viable cell count ([1]; compound 0.3 μM) | CD34-positive cell count ([1]; compound 1 μM) | Viable cell count ([1]; compound 1 μM) | CD34-positive cell count ([1]; compound 3 μM) | Viable cell count ([1]; compound 3 μM) | CD34-positive cell count ([1]; compound 10 μM) | Viable cell count ([1]; compound 10 μM) | Colony count (colony) after culture (CFU-GEMM) ([2]; compound 0.001 μM) | Colony count (colony) after culture (CFU-GEMM) ([2]; compound 0.003 μM) | other results |
| --- | --- | --- | --- | --- | --- | --- | --- | --- | --- | --- | --- | --- | --- | --- | --- | --- | --- | --- | --- | --- | --- |
| C[C@H]1[C@H](c2ccco2)O[C@@H]2O[C@@]3(C)CC[C@H]4[C@H](C)CC[C@@H]1[C@@]24OO3 [Example 1-7, (3R,5aS,6R,8aS,9R,10R,12R,12aR)-10-(Furan-2-yl)-3,6,9-trimethyldecahydro-12H-3,12-epoxypyrano[4,3-j][1,2]benzodioxepine] | 175 cell | 1314 cell | 113 cell | 1013 cell | 150 cell | 1115 cell | 86 cell | 905 cell | 80 cell | 693 cell | 5 cell | 439 cell | 4 cell | 196 cell | 0 cell | 202 cell | 0 cell | 181 cell | 43.8 colony | 33.8 colony | Colony count (colony) after culture (CFU-GEMM) ([2]; compound 0.01 μM): 74.3 colony; Colony count (colony) after culture (CFU-GEMM) ([2]; compound 0.03 μM): 83.0 colony; Colony count (colony) after culture (CFU-GEMM) ([2]; compound 0.1 μM): 64.1 colony; Colony count (colony) after culture (CFU-GEMM) ([2]; compound 0.3 μM): 19.5 colony; Colony count (colony) after culture (CFU-GEMM) ([2]; compound 1 μM): 0.0 colony; Colony count (colony) after culture (CFU-GEMM) ([2]; compound 3 μM): 0.0 colony; Colony count (colony) after culture (CFU-GEMM) ([2]; compound 10 μM): 0.0 colony |
| C[C@H]1[C@H](C(N)=O)O[C@@H]2O[C@@]3(C)CC[C@H]4[C@H](C)CC[C@@H]1[C@@]24OO3 [Example 1-16, (3R,5aS,6R,8aS,9R,10R,12R,12aR)-3,6,9-Trimethyldecahydro-12H-3,12-epoxypyrano[4,3-j][1,2]benzodioxepine-10-carboxamide] | 143 cell | 1306 cell | 173 cell | 1224 cell | 116 cell | 1301 cell | 130 cell | 590 cell | 92 cell | 811 cell | 32 cell | 549 cell | 13 cell | 368 cell | 13 cell | 300 cell | 3 cell | 264 cell | 130.6 colony | 112.2 colony | Colony count (colony) after culture (CFU-GEMM) ([2]; compound 0.01 μM): 65.1 colony; Colony count (colony) after culture (CFU-GEMM) ([2]; compound 0.03 μM): 68.8 colony; Colony count (colony) after culture (CFU-GEMM) ([2]; compound 0.1 μM): 40.6 colony; Colony count (colony) after culture (CFU-GEMM) ([2]; compound 0.3 μM): 22.9 colony; Colony count (colony) after culture (CFU-GEMM) ([2]; compound 1 μM): 15.7 colony; Colony count (colony) after culture (CFU-GEMM) ([2]; compound 3 μM): 10.0 colony; Colony count (colony) after culture (CFU-GEMM) ([2]; compound 10 μM): 8.8 colony |
| COCCO[C@H]1O[C@@H]2O[C@@]3(C)CC[C@H]4[C@H](C)CC[C@@H]([C@H]1C)[C@@]24OO3 [Example 1-23, (3R,5aS,6R,8aS,9R,10S,12R,12aR)-10-(2-methoxyethoxy)-3,6,9-trimethyldecahydro-12H-3,12-epoxypyrano[4,3-j][1,2]benzodioxepine] | 156 cell | 1581 cell | 65 cell | 797 cell | 72 cell | 1152 cell | 63 cell | 901 cell | 28 cell | 537 cell | 19 cell | 462 cell | 16 cell | 480 cell | 15 cell | 269 cell | 0 cell | 333 cell | 171.3 colony | 39.9 colony | Colony count (colony) after culture (CFU-GEMM) ([2]; compound 0.01 μM): 76.8 colony; Colony count (colony) after culture (CFU-GEMM) ([2]; compound 0.03 μM): 22.5 colony; Colony count (colony) after culture (CFU-GEMM) ([2]; compound 0.1 μM): 13.4 colony; Colony count (colony) after culture (CFU-GEMM) ([2]; compound 0.3 μM): 3.9 colony; Colony count (colony) after culture (CFU-GEMM) ([2]; compound 1 μM): 12.0 colony; Colony count (colony) after culture (CFU-GEMM) ([2]; compound 3 μM): 4.5 colony; Colony count (colony) after culture (CFU-GEMM) ([2]; compound 10 μM): 0.0 colony; Donor chimerism ([3]; 1 month after transplantation): 0.299 ± 0.049%; Donor chimerism ([3]; 2 months after transplantation): 0.748 ± 0.585%; Viable cell count [4]: 20071 cell |
